According to PubChem BioAssay (NCI):
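GI50: concentration for 50% inhibition of growth. Definition used: TGI = concentration required for complete inhibition of growth.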

What was measured:
Test in all cases: NCI tumour cell line growth inhibition, 384-well format
[1] = test system: T-47D breast
[2] = test system: NCI-H322M lung
[3] = test system: SF-268 CNS
[4] = test system: CCRF-CEM leukemia
[5] = test system: OVCAR-8 ovarian
[6] = test system: UACC-62 melanoma
[7] = test system: OVCAR-5 ovarian
[8] = test system: SK-MEL-28 melanoma
[9] = test system: M14 melanoma
[10] = test system: RPMI-8226 leukemia
[11] = test system: SK-MEL-2 melanoma
[12] = test system: OVCAR-3 ovarian
[13] = test system: MDA-MB-231 breast
[14] = test system: U251 glioblastoma
[15] = test system: KM12 colon
[16] = test system: MDA-MB-435 melanoma
[17] = test system: NCI-H23 lung
[18] = test system: SF-539 CNS
[19] = test system: NCI/ADR-RES ovarian
[20] = test system: PC-3 prostate
[21] = test system: SK-OV-3 ovarian
[22] = test system: HCT-116 colon
[23] = test system: NCI-H522 lung
[24] = test system: DU-145 prostate
[25] = test system: HOP-62 NSCLC
[26] = test system: K-562 leukemia
[27] = test system: UACC-257 melanoma
[28] = test system: IGROV1 ovarian
[29] = test system: HS 578T breast
[30] = test system: UO-31 renal
[31] = test system: EKVX NSCLC
[32] = test system: HL-60(TB) leukemia
[33] = test system: SNB-75 CNS
[34] = test system: SW-620 colon
[35] = test system: TK-10 renal
[36] = test system: NCI-H226 lung
[37] = test system: 786-0 renal
[38] = test system: OVCAR-4 ovarian
[39] = test system: MCF7 breast
[40] = test system: SNB-19 CNS
[41] = test system: ACHN renal
[42] = test system: MOLT-4 leukemia
[43] = test system: RXF 393 renal
[44] = test system: SN12C renal
[45] = test system: HCT-15 colon
[46] = test system: HT29 colon
[47] = test system: MDA-MB-468 breast
[48] = test system: A549 NSCLC
[49] = test system: A498 renal
[50] = test system: MALME-3M melanoma
[51] = test system: HOP-92 NSCLC
[52] = test system: LOX IMVI melanoma
[53] = test system: CAKI-1 renal
[54] = test system: BT-549 breast
[55] = test system: SF-295 CNS

Which GI50 [1] does the source give for `N[C@@H]1CCCC[C@H]1N.O=C([O-])C(=O)[O-].[Pt+4]` here?
Its GI50 is 12.7 µM.

What about the TGI [1] of the same molecule?
Its TGI is greater than 100 µM.

And the GI50 [2]?
Its GI50 is greater than 100 µM.

What about the TGI [2] of the same molecule?
Its TGI is greater than 100 µM.

And the GI50 [3]?
Its GI50 is 11 µM.

And the TGI [3]?
Its TGI is greater than 100 µM.

What about the GI50 [4] of the same molecule?
Its GI50 is 2130 nM.

And the TGI [4]?
Its TGI is 4.74 µM.

And the GI50 [5]?
The GI50 was 6.15 µM.

What about the TGI [5] of the same molecule?
Its TGI is greater than 100 µM.

What about the GI50 [6] of the same molecule?
The GI50 was 3.15 µM.

What about the TGI [6] of the same molecule?
The TGI was 25.1 µM.

And the GI50 [7]?
Its GI50 is 8.06 µM.

What about the TGI [7] of the same molecule?
The TGI was 47.8 µM.

What about the GI50 [8] of the same molecule?
The GI50 was 14.6 µM.

And the TGI [8]?
The TGI was 63.9 µM.

And the GI50 [9]?
Its GI50 is 8.78 µM.

What about the TGI [9] of the same molecule?
Its TGI is 52.6 µM.

What about the GI50 [10] of the same molecule?
Its GI50 is 403 nM.

And the TGI [10]?
Its TGI is 1850 nM.

What about the GI50 [11] of the same molecule?
The GI50 was 75.9 µM.

What about the TGI [11] of the same molecule?
The TGI was greater than 100 µM.

What about the GI50 [12] of the same molecule?
The GI50 was 8.13 µM.

And the TGI [12]?
Its TGI is 30.6 µM.

And the GI50 [13]?
The GI50 was 25.8 µM.

And the TGI [13]?
Its TGI is greater than 100 µM.

And the GI50 [14]?
Its GI50 is 8.83 µM.

And the TGI [14]?
Its TGI is greater than 100 µM.

And the GI50 [15]?
Its GI50 is 20.8 µM.

And the TGI [15]?
Its TGI is greater than 100 µM.

What about the GI50 [16] of the same molecule?
The GI50 was 9.49 µM.

What about the TGI [16] of the same molecule?
The TGI was greater than 100 µM.

What about the GI50 [17] of the same molecule?
Its GI50 is 8.68 µM.

And the TGI [17]?
The TGI was 28.8 µM.

What about the GI50 [18] of the same molecule?
The GI50 was 6.07 µM.

What about the TGI [18] of the same molecule?
Its TGI is 35.5 µM.

What about the GI50 [19] of the same molecule?
The GI50 was 20.2 µM.

And the TGI [19]?
Its TGI is greater than 100 µM.

And the GI50 [20]?
Its GI50 is 8.53 µM.

What about the TGI [20] of the same molecule?
Its TGI is greater than 100 µM.

And the GI50 [21]?
Its GI50 is 31 µM.

What about the TGI [21] of the same molecule?
Its TGI is greater than 100 µM.

And the GI50 [22]?
The GI50 was 3.36 µM.

And the TGI [22]?
Its TGI is greater than 100 µM.

What about the GI50 [23] of the same molecule?
Its GI50 is 10.1 µM.

What about the TGI [23] of the same molecule?
The TGI was 21.7 µM.

And the GI50 [24]?
The GI50 was 7.47 µM.

And the TGI [24]?
The TGI was 36 µM.

And the GI50 [25]?
The GI50 was 7.92 µM.

And the TGI [25]?
The TGI was greater than 100 µM.

And the GI50 [26]?
Its GI50 is 4.56 µM.

And the TGI [26]?
Its TGI is 21.5 µM.

And the GI50 [27]?
Its GI50 is 24.1 µM.

And the TGI [27]?
Its TGI is greater than 100 µM.

And the GI50 [28]?
Its GI50 is 16.7 µM.

What about the TGI [28] of the same molecule?
Its TGI is greater than 100 µM.

What about the GI50 [29] of the same molecule?
The GI50 was greater than 100 µM.

And the TGI [29]?
The TGI was greater than 100 µM.

What about the GI50 [30] of the same molecule?
The GI50 was 10.4 µM.

What about the TGI [30] of the same molecule?
Its TGI is 25.5 µM.

And the GI50 [31]?
The GI50 was greater than 100 µM.

And the TGI [31]?
The TGI was greater than 100 µM.

What about the GI50 [32] of the same molecule?
Its GI50 is 523 nM.

What about the TGI [32] of the same molecule?
The TGI was 1820 nM.

And the GI50 [33]?
Its GI50 is 30 µM.

And the TGI [33]?
Its TGI is greater than 100 µM.

What about the GI50 [34] of the same molecule?
The GI50 was 951 nM.

What about the TGI [34] of the same molecule?
Its TGI is 55.8 µM.

And the GI50 [35]?
The GI50 was 11.2 µM.

And the TGI [35]?
Its TGI is greater than 100 µM.

What about the GI50 [36] of the same molecule?
Its GI50 is 12.5 µM.

What about the TGI [36] of the same molecule?
Its TGI is 48.4 µM.

And the GI50 [37]?
The GI50 was 3.2 µM.

What about the TGI [37] of the same molecule?
Its TGI is 98.7 µM.

What about the GI50 [38] of the same molecule?
The GI50 was 19.8 µM.

And the TGI [38]?
The TGI was greater than 100 µM.

What about the GI50 [39] of the same molecule?
The GI50 was 5.43 µM.

What about the TGI [39] of the same molecule?
Its TGI is greater than 100 µM.

What about the GI50 [40] of the same molecule?
Its GI50 is 58.3 µM.

And the TGI [40]?
The TGI was greater than 100 µM.

And the GI50 [41]?
The GI50 was 2880 nM.

And the TGI [41]?
The TGI was 20.4 µM.

What about the GI50 [42] of the same molecule?
The GI50 was 276 nM.

And the TGI [42]?
The TGI was 700 nM.

And the GI50 [43]?
Its GI50 is 10.6 µM.

And the TGI [43]?
Its TGI is 23.7 µM.

What about the GI50 [44] of the same molecule?
Its GI50 is 7.27 µM.

What about the TGI [44] of the same molecule?
Its TGI is greater than 100 µM.

And the GI50 [45]?
Its GI50 is 4.11 µM.

And the TGI [45]?
The TGI was 40.8 µM.

And the GI50 [46]?
Its GI50 is 3.78 µM.

And the TGI [46]?
Its TGI is greater than 100 µM.

And the GI50 [47]?
The GI50 was 2330 nM.

And the TGI [47]?
Its TGI is 7.94 µM.

What about the GI50 [48] of the same molecule?
The GI50 was 2610 nM.

And the TGI [48]?
The TGI was greater than 100 µM.

What about the GI50 [49] of the same molecule?
Its GI50 is 939 nM.

And the TGI [49]?
The TGI was 54.1 µM.

What about the GI50 [50] of the same molecule?
The GI50 was 10.7 µM.

What about the TGI [50] of the same molecule?
Its TGI is 22.8 µM.

And the GI50 [51]?
The GI50 was 32.3 µM.

And the TGI [51]?
Its TGI is greater than 100 µM.

And the GI50 [52]?
Its GI50 is 12.2 µM.

What about the TGI [52] of the same molecule?
Its TGI is greater than 100 µM.

And the GI50 [53]?
Its GI50 is 1030 nM.

And the TGI [53]?
Its TGI is 31.3 µM.

And the GI50 [54]?
Its GI50 is 12.1 µM.

And the TGI [54]?
The TGI was 27.8 µM.

What about the GI50 [55] of the same molecule?
The GI50 was 27.4 µM.

What about the TGI [55] of the same molecule?
The TGI was greater than 100 µM.
